Assays:
human V2 receptor = molecular target: T1, human V2 receptor (Homo sapiens, UniProt P30518); assay: Cellular in vitro assay for determining vasopressin receptor activity, V2 receptor cell line (CRE-luciferase); type: cell-based; details: CHO cell line transfected with the human V2 receptor; agonist [Arg8]-vasopressin at EC50 concentration; read-out: IC50 hV2
T1 construct: expressed in transfected cells; host or cells: CHO K1 (ATCC) expressing firefly luciferase under a CRE-responsive promoter
T1 sequence (P30518 whole entry): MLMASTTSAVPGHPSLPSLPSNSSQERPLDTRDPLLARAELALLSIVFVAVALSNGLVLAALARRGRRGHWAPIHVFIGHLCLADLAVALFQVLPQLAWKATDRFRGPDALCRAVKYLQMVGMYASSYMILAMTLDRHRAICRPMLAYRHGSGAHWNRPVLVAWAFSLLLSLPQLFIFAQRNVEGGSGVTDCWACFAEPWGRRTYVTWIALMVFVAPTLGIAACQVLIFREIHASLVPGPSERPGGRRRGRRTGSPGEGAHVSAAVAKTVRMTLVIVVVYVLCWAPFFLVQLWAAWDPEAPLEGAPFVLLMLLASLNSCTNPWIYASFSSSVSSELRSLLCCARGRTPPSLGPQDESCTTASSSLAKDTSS

human V1a receptor = human V1a receptor (Homo sapiens, UniProt P37288); assay: Cellular in vitro assay for determining vasopressin receptor activity, V1a receptor cell line (photoprotein luminescence); type: cell-based; details: for IC50: CHO cell line transfected with the human V1a receptor, agonist [Arg8]-vasopressin at EC50 concentration, read-out: IC50 hV1a; for ratio IC50 hV2/hV1a: selectivity ratio of the cellular IC50 values
Chain of human V1a receptor (P37288 whole entry): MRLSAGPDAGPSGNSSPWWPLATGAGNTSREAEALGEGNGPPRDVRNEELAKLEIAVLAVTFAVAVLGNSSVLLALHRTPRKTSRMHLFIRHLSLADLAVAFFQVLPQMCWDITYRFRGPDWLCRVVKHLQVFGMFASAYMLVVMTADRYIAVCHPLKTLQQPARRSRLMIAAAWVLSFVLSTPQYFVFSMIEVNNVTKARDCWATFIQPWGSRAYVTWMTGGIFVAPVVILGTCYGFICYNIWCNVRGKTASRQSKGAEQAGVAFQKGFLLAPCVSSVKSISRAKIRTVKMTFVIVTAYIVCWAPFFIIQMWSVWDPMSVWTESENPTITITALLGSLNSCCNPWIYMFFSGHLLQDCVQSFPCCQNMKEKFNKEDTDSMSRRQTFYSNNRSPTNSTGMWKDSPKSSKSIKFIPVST
Outline: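 CHO K1 cells stably expressing human V1a receptor with aequorin photoprotein, loaded overnight with coelenterazine. Compounds preincubated 10 min at various concentrations, then challenged with [Arg^8]-vasopressin at EC50 concentration. Calcium-driven luminescence read immediately; IC50 values derived.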

| IC50 (human V2 receptor) | IC50 (human V1a receptor) | ratio IC50 hV2/hV1a (human V1a receptor) | Compound |
| --- | --- | --- | --- |
| 24.8 nM | 0.35 nM | 71.2 | CC(C)(N)CNc1nc(Cn2nc(-c3ccc(Cl)cc3)n(C[C@H](O)C(F)(F)F)c2=O)nn1-c1ccccc1Cl [Example 32, 2-({5-[(2-Amino-2-methylpropyl)amino]-1-(2-chlorophenyl)-1H-1,2,4-triazol-3-yl}methyl)-5-(4-chlorophenyl)-4-[(2S)-3,3,3-trifluoro-2-hydroxypropyl]-2,4-dihydro-3H-1,2,4-triazol-3-one] |
| 8.75 nM | 0.46 nM | 19.0 | O=c1n(Cc2nc(N3CCC(F)(F)CC3)n(-c3ccccc3Cl)n2)nc(-c2ccc(Cl)cc2)n1C[C@H](O)C(F)(F)F [Example 34, 5-(4-Chlorophenyl)-2-{[1-(2-chlorophenyl)-5-(4,4-difluoropiperidin-1-yl)-1H-1,2,4-triazol-3-yl]methyl}-4-[(2S)-3,3,3-trifluoro-2-hydroxypropyl]-2,4-dihydro-3H-1,2,4-triazol-3-one] |
| 6.05 nM | 0.48 nM | 12.6 | O=C1NCC2(CN(c3nc(Cn4nc(-c5ccc(Cl)cc5)n(C[C@H](O)C(F)(F)F)c4=O)nn3-c3ccccc3Cl)C2)N1 [Example 35, 2-[1-(2-Chlorophenyl)-3-({3-(4-chlorophenyl)-5-oxo-4-[(2S)-3,3,3-trifluoro-2-hydroxypropyl]-4,5-dihydro-1H-1,2,4-triazol-1-yl}methyl)-1H-1,2,4-triazol-5-yl]-2,5,7-triazaspiro[3.4]octan-6-one] |
| 1.75 nM | 0.82 nM | 2.1 | O=c1n(Cc2nc(N3CC(O)(C(F)(F)F)C3)n(-c3ccccc3Cl)n2)nc(-c2ccc(Cl)cc2)n1C[C@H](O)C(F)(F)F [Example 36, 5-(4-Chlorophenyl)-2-({1-(2-chlorophenyl)-5-[3-hydroxy-3-(trifluoromethyl)azetidin-1-yl]-1H-1,2,4-triazol-3-yl}methyl)-4-[(2S)-3,3,3-trifluoro-2-hydroxypropyl]-2,4-dihydro-3H-1,2,4-triazol-3-one] |
| 1.33 nM | 0.44 nM | 3.1 | O=c1n(Cc2nc(N3CCC(F)(F)C3)n(-c3ccccc3Cl)n2)nc(-c2ccc(Cl)cc2)n1C[C@H](O)C(F)(F)F [Example 37, 5-(4-Chlorophenyl)-2-{[1-(2-chlorophenyl)-5-(3,3-difluoropyrrolidin-1-yl)-1H-1,2,4-triazol-3-yl]methyl}-4-[(2S)-3,3,3-trifluoro-2-hydroxypropyl]-2,4-dihydro-3H-1,2,4-triazol-3-one] |
| 3.55 nM | 0.4 nM | 8.9 | O=c1n(Cc2nc(N3CCC4OCCC43)n(-c3ccccc3Cl)n2)nc(-c2ccc(Cl)cc2)n1C[C@H](O)C(F)(F)F (stereo partly drawn) [Example 38, 5-(4-Chlorophenyl)-2-{[1-(2-chlorophenyl)-5-(hexahydro-4H-furo[3,2-b]pyrrol-4-yl)-1H-1,2,4-triazol-3-yl]methyl}-4-[(2S)-3,3,3-trifluoro-2-hydroxypropyl]-2,4-dihydro-3H-1,2,4-triazol-3-one] |
| 18 nM | 0.58 nM | 31.0 | CC1(C)CN(c2nc(Cn3nc(-c4ccc(Cl)cc4)n(C[C@H](O)C(F)(F)F)c3=O)nn2-c2ccccc2Cl)CCO1 [Example 39, 5-(4-Chlorophenyl)-2-{[1-(2-chlorophenyl)-5-(2,2-dimethylmorpholin-4-yl)-1H-1,2,4-triazol-3-yl]methyl}-4-[(2S)-3,3,3-trifluoro-2-hydroxypropyl]-2,4-dihydro-3H-1,2,4-triazol-3-one] |
| 7.2 nM | 0.72 nM | 10.1 | O=C(CNc1nc(Cn2nc(-c3ccc(Cl)cc3)n(C[C@H](O)C(F)(F)F)c2=O)nn1-c1ccccc1Cl)NCC(F)(F)F [Example 40, N^2-[1-(2-Chlorophenyl)-3-({3-(4-chlorophenyl)-5-oxo-4-[(2S)-3,3,3-trifluoro-2-hydroxypropyl]-4,5-dihydro-1H-1,2,4-triazol-1-yl}methyl)-1H-1,2,4-triazol-5-yl]-N-(2,2,2-trifluoroethyl)glycinamide] |
| 1.16 nM | 0.34 nM | 3.5 | NS(=O)(=O)CCNc1nc(Cn2nc(-c3ccc(Cl)cc3)n(C[C@H](O)C(F)(F)F)c2=O)nn1-c1ccccc1Cl [Example 44, 2-{[1-(2-Chlorophenyl)-3-({3-(4-chlorophenyl)-5-oxo-4-[(2S)-3,3,3-trifluoro-2-hydroxypropyl]-4,5-dihydro-1H-1,2,4-triazol-1-yl}methyl)-1H-1,2,4-triazol-5-yl]amino}ethanesulfonamide] |
| 13 nM | 2.45 nM | 5.3 | O=C1CCCN1CCNc1nc(Cn2nc(-c3ccc(Cl)cc3)n(C[C@H](O)C(F)(F)F)c2=O)nn1-c1ccccc1Cl [Example 45, 5-(4-Chlorophenyl)-2-{[1-(2-chlorophenyl)-5-{[2-(2-oxopyrrolidin-1-yl)ethyl]amino}-1H-1,2,4-triazol-3-yl]methyl}-4-[(2S)-3,3,3-trifluoro-2-hydroxypropyl]-2,4-dihydro-3H-1,2,4-triazol-3-one] |
| 5.47 nM | 0.65 nM | 8.5 | O=C1NCCN1CCNc1nc(Cn2nc(-c3ccc(Cl)cc3)n(C[C@H](O)C(F)(F)F)c2=O)nn1-c1ccccc1Cl [Example 46, 5-(4-Chlorophenyl)-2-{[1-(2-chlorophenyl)-5-{[2-(2-oxoimidazolidin-1-yl)ethyl]amino}-1H-1,2,4-triazol-3-yl]methyl}-4-[(2S)-3,3,3-trifluoro-2-hydroxypropyl]-2,4-dihydro-3H-1,2,4-triazol-3-one] |

| Compound | IC50 (human V2 receptor) | IC50 (human V1a receptor) | ratio IC50 hV2/hV1a (human V1a receptor) |
| --- | --- | --- | --- |
| O=c1n(Cc2nc(N3CC4(C3)CS(=O)(=O)C4)n(-c3ccccc3Cl)n2)nc(-c2ccc(Cl)cc2)n1C[C@H](O)C(F)(F)F [Example 47, 5-(4-Chlorophenyl)-2-{[1-(2-chlorophenyl)-5-(2,2-dioxido-2-thia-6-azaspiro[3.3]hept-6-yl)-1H-1,2,4-triazol-3-yl]methyl}-4-[(2S)-3,3,3-trifluoro-2-hydroxypropyl]-2,4-dihydro-3H-1,2,4-triazol-3-one] | 5.63 nM | 0.96 nM | 5.8 |
| O=C1CN(c2nc(Cn3nc(-c4ccc(Cl)cc4)n(C[C@H](O)C(F)(F)F)c3=O)nn2-c2ccccc2Cl)CCN1 [Example 48, 4-[1-(2-Chlorophenyl)-3-({3-(4-chlorophenyl)-5-oxo-4-[(2S)-3,3,3-trifluoro-2-hydroxypropyl]-4,5-dihydro-1H-1,2,4-triazol-1-yl}methyl)-1H-1,2,4-triazol-5-yl]piperazin-2-one] | 10.4 nM | 0.64 nM | 16.3 |
| C[C@@H](O)CNc1nc(Cn2nc(-c3ccc(Cl)cc3)n(C[C@H](O)C(F)(F)F)c2=O)nn1-c1ccccc1Cl [Example 49, 5-(4-Chlorophenyl)-2-{[1-(2-chlorophenyl)-5-{[(2R)-2-hydroxypropyl]amino}-1H-1,2,4-triazol-3-yl]methyl}-4-[(2S)-3,3,3-trifluoro-2-hydroxypropyl]-2,4-dihydro-3H-1,2,4-triazol-3-one] | 1.94 nM | 0.63 nM | 3.1 |
| C[C@H](O)CNc1nc(Cn2nc(-c3ccc(Cl)cc3)n(C[C@H](O)C(F)(F)F)c2=O)nn1-c1ccccc1Cl [Example 50, 5-(4-Chlorophenyl)-2-{[1-(2-chlorophenyl)-5-{[(2S)-2-hydroxypropyl]amino}-1H-1,2,4-triazol-3-yl]methyl}-4-[(2S)-3,3,3-trifluoro-2-hydroxypropyl]-2,4-dihydro-3H-1,2,4-triazol-3-one] | 2.08 nM | 0.47 nM | 4.5 |
| CS(=O)(=O)CCNc1nc(Cn2nc(-c3ccc(Cl)cc3)n(C[C@H](O)C(F)(F)F)c2=O)nn1-c1ccccc1Cl [Example 51, 5-(4-Chlorophenyl)-2-{[1-(2-chlorophenyl)-5-{[2-(methylsulfonyl)ethyl]amino}-1H-1,2,4-triazol-3-yl]methyl}-4-[(2S)-3,3,3-trifluoro-2-hydroxypropyl]-2,4-dihydro-3H-1,2,4-triazol-3-one] | 1.75 nM | 0.71 nM | 2.5 |
| O=c1n(Cc2nc(NCC3(O)CCC3)n(-c3ccccc3Cl)n2)nc(-c2ccc(Cl)cc2)n1C[C@H](O)C(F)(F)F [Example 52, 5-(4-Chlorophenyl)-2-{[1-(2-chlorophenyl)-5-{[(1-hydroxycyclobutyl)methyl]amino}-1H-1,2,4-triazol-3-yl]methyl}-4-[(2S)-3,3,3-trifluoro-2-hydroxypropyl]-2,4-dihydro-3H-1,2,4-triazol-3-one] | 0.83 nM | 0.65 nM | 1.3 |
| O=c1n(Cc2nc(NCC3(O)CC3)n(-c3ccccc3Cl)n2)nc(-c2ccc(Cl)cc2)n1C[C@H](O)C(F)(F)F [Example 54, 5-(4-Chlorophenyl)-2-{[1-(2-chlorophenyl)-5-{[(1-hydroxycyclopropyl)methyl]amino}-1H-1,2,4-triazol-3-yl]methyl}-4-[(2S)-3,3,3-trifluoro-2-hydroxypropyl]-2,4-dihydro-3H-1,2,4-triazol-3-one] | 1.56 nM | 0.54 nM | 2.9 |
| O=c1n(Cc2nc(N3CCS(=O)(=O)CC3)n(-c3ccccc3Cl)n2)nc(-c2ccc(Cl)cc2)n1C[C@H](O)C(F)(F)F [Example 55, 5-(4-Chlorophenyl)-2-{[1-(2-chlorophenyl)-5-(1,1-dioxidothiomorpholin-4-yl)-1H-1,2,4-triazol-3-yl]methyl}-4-[(2S)-3,3,3-trifluoro-2-hydroxypropyl]-2,4-dihydro-3H-1,2,4-triazol-3-one] | 26 nM | 0.39 nM | 67.1 |

From patent US11331314B2, “Amine substituted triazole derivatives and uses thereof” (Bayer Pharma Aktiengesellschaft, priority 2017, dated 2022)
